{"source": "ChEMBL document CHEMBL5661943", "about": "“ASAP - In vitro antiviral effect” (2024)", "key": {"dengue virus type 2 [1]": {"tested_on": "dengue virus type 2", "experiment": "Functional assay to measure dose dependent changes in antiviral-drug inhibitory efficacy against Dengue virus type 2 New Guinea C in Vero E6 miRFP670 cells (cotreated with P-gp inhibitor, CP100356). Cells are treated with antiviral candidates that are serially diluted, following infection, cells are fixed. EC50 is reported via analysis of fluorescence intensity using high-content imager. The …", "format": "organism-based, Chlorocebus sabaeus, Vero C1008", "conditions": "for EC90: Baseline response 0 %, Maximum response 100 %, P-gp concentration 500 nM, P-gp inhibitor CP100356"}, "Zika virus [2]": {"tested_on": "Zika virus", "experiment": "Functional CPE-based assay to measure dose dependent changes in antiviral-drug inhibitory efficacy against Zika virus MR766 in Vero E6 miRFP670 cells (cotreated with P-gp inhibitor, CP100356). Cells are treated with antiviral candidates that are serially diluted. EC50 is reported via analysis of MTS assay as a readout of CPE. The assay has been performed by KU Leuven.", "format": "organism-based, Chlorocebus sabaeus, Vero C1008", "conditions": "for EC90: P-gp concentration 500 nM, P-gp inhibitor CP100356"}, "dengue virus type 2 [3]": {"tested_on": "dengue virus type 2", "experiment": "Functional immunofluorescence assay to measure dose dependent changes in antiviral-drug inhibitory efficacy against Dengue virus type 2 Thailand/16681/84 in Vero E6/TMPRSS2 cells (cotreated with P-gp inhibitor, Elacridar). Cells are treated with antiviral candidates that are serially diluted, following infection, cells are fixed. EC50 is reported via analysis of immunofluorescence staining. The assay has been performed by Icahn School of Medicine at Mount Sinai.", "format": "organism-based, Chlorocebus sabaeus, VeroE6/TMPRSS2", "conditions": "Dengue virus; for EC90: P-gp concentration 2 uM, P-gp inhibitor Elacidar"}, "Zika virus [4]": {"tested_on": "Zika virus", "experiment": "EC50 is reported via analysis of immunofluorescence staining. The assay has been performed by Icahn School of Medicine at Mount Sinai.", "format": "functional, organism-based, Chlorocebus sabaeus, VeroE6/TMPRSS2", "conditions": "Zika virus"}}, "note": "Several values for one entry are separate records, joined by “and”; a condition that tells them apart may be missing. Equal values may be shown once."}
{"compound": "O=C(NC[C@H]1CCCO1)[C@H](Nc1ccc2c(c1)CNC2)c1cc(Cl)cc(C2CC2)c1", "values": [{"measurement": "EC50", "setting": "dengue virus type 2 [1]; Dengue virus, Vero C1008", "result": "> 50", "unit": "µM"}, {"measurement": "EC90", "setting": "dengue virus type 2 [1]; Dengue virus, Vero C1008, Hill slope -0.736, Maximum measured 108.993 %, Minimum measured 54.851 %, R squared 0.259", "result": "> 50", "unit": "µM"}, {"measurement": "EC50", "setting": "Zika virus [2]; Zika virus, Vero C1008", "result": "> 25", "unit": "µM"}, {"measurement": "EC90", "setting": "Zika virus [2]; Zika virus, Vero C1008, Baseline response 0 %, Hill slope 2.187, Maximum measured 41.665 %, Maximum response 100 %, Minimum measured -0.442 %, R squared 0.938", "result": "> 25", "unit": "µM"}, {"measurement": "EC50", "setting": "dengue virus type 2 [3]; VeroE6/TMPRSS2", "result": "> 50", "unit": "µM"}, {"measurement": "EC90", "setting": "dengue virus type 2 [3]; VeroE6/TMPRSS2, Maximum measured 244.293 %, Minimum measured 137.827 %", "result": "> 50", "unit": "µM"}, {"measurement": "EC50", "setting": "Zika virus [4]; VeroE6/TMPRSS2", "result": "> 5.56", "unit": "µM"}, {"measurement": "EC90", "setting": "Zika virus [4]; VeroE6/TMPRSS2, Maximum measured 140.093 %, Minimum measured 93.076 %, P-gp concentration 2 uM, P-gp inhibitor Elacidar", "result": "> 5.56", "unit": "µM"}, {"measurement": "EC90", "setting": "Zika virus [4]; VeroE6/TMPRSS2, Baseline response 0 %, Hill slope 0.091, Maximum measured 92.664 %, Maximum response 100 %, Minimum measured 73.777 %, P-gp concentration 2 uM, R squared 0.029, P-gp inhibitor Elacidar", "result": "> 5.56", "unit": "µM"}]}
{"compound": "O=C(Nc1ccc2c(n1)CNC2)c1cc(Cl)cc2[nH]ncc12", "values": [{"measurement": "EC50", "setting": "dengue virus type 2 [1]; Dengue virus, Vero C1008", "result": "> 50", "unit": "µM"}, {"measurement": "EC90", "setting": "dengue virus type 2 [1]; Dengue virus, Vero C1008, Hill slope 0.339, Maximum measured 101.822 %, Minimum measured 73.077 %, R squared 0.116", "result": "> 50", "unit": "µM"}, {"measurement": "EC50", "setting": "Zika virus [2]; Zika virus, Vero C1008", "result": "> 50", "unit": "µM"}, {"measurement": "EC90", "setting": "Zika virus [2]; Zika virus, Vero C1008, Baseline response 0 %, Hill slope 0.276, Maximum measured 8.826 %, Maximum response 100 %, Minimum measured 2.871 %, R squared 0.346", "result": "> 50", "unit": "µM"}, {"measurement": "EC50", "setting": "dengue virus type 2 [3]; VeroE6/TMPRSS2", "result": 33.2, "unit": "µM"}, {"measurement": "EC90", "setting": "dengue virus type 2 [3]; VeroE6/TMPRSS2, Baseline response 0 %, Hill slope -0.91, Maximum measured 153.42 %, Maximum response 100 %, Minimum measured 44.335 %, R squared 0.461", "result": "> 50", "unit": "µM"}, {"measurement": "EC50", "setting": "Zika virus [4]; VeroE6/TMPRSS2", "result": 5.29, "unit": "µM"}, {"measurement": "EC90", "setting": "Zika virus [4]; VeroE6/TMPRSS2, Baseline response 0 %, Hill slope -0.136, Maximum measured 80.309 %, Maximum response 100 %, Minimum measured 35.788 %, P-gp concentration 2 uM, R squared 0.184, P-gp inhibitor Elacidar", "result": "> 50", "unit": "µM"}]}
{"compound": "Cc1c(C(=O)Nc2cc([C@H]3CCOC3)ccn2)cc(C2CC2)n1C", "values": [{"measurement": "EC90", "setting": "dengue virus type 2 [1]; Hill slope 0.336, Maximum measured 108.09 %, Minimum measured 73.455 %, R squared 0.31", "result": "> 50", "unit": "µM"}, {"measurement": "EC50", "setting": "dengue virus type 2 [1]; Dengue virus, Vero C1008", "result": "> 50", "unit": "µM"}, {"measurement": "EC90", "setting": "dengue virus type 2 [1]; Dengue virus, Vero C1008, Hill slope -3.691, Maximum measured 104.755 %, Minimum measured 84.933 %, R squared 0.225", "result": "> 50", "unit": "µM"}, {"measurement": "EC50", "setting": "Zika virus [2]; Zika virus, Vero C1008", "result": "> 50", "unit": "µM"}, {"measurement": "EC90", "setting": "Zika virus [2]; Zika virus, Vero C1008, Maximum measured 3.949 %, Minimum measured -5.577 %", "result": "> 50", "unit": "µM"}, {"measurement": "EC90", "setting": "Zika virus [2]; Zika virus, Vero C1008, Maximum measured -8.54 %, Minimum measured -21.261 %", "result": "> 50", "unit": "µM"}, {"measurement": "EC50", "setting": "dengue virus type 2 [3]; VeroE6/TMPRSS2", "result": "> 50", "unit": "µM"}, {"measurement": "EC90", "setting": "dengue virus type 2 [3]; VeroE6/TMPRSS2, Maximum measured 144.829 %, Minimum measured 95.742 %", "result": "> 50", "unit": "µM"}, {"measurement": "EC50", "setting": "Zika virus [4]; VeroE6/TMPRSS2", "result": 0.157, "unit": "µM"}, {"measurement": "EC90", "setting": "Zika virus [4]; VeroE6/TMPRSS2", "result": 49.5, "unit": "µM"}]}
{"compound": "N[C@H]1Cc2ccc(NC(=O)c3cc(Cl)cc4[nH]ncc34)cc2C1", "values": [{"measurement": "EC50", "setting": "dengue virus type 2 [1]; Dengue virus, Vero C1008", "result": "> 50", "unit": "µM"}, {"measurement": "EC90", "setting": "dengue virus type 2 [1]; Dengue virus, Vero C1008, Hill slope -0.493, Maximum measured 107.038 %, Minimum measured 74.642 %, R squared 0.117", "result": "> 50", "unit": "µM"}, {"measurement": "EC50", "setting": "Zika virus [2]; Zika virus, Vero C1008", "result": "> 50", "unit": "µM"}, {"measurement": "EC90", "setting": "Zika virus [2]; Zika virus, Vero C1008, Baseline response 0 %, Hill slope 8.874, Maximum measured 2.747 %, Maximum response 100 %, Minimum measured -3.726 %, R squared 0.015", "result": "> 50", "unit": "µM"}, {"measurement": "EC50", "setting": "dengue virus type 2 [3]; VeroE6/TMPRSS2", "result": "> 50", "unit": "µM"}, {"measurement": "EC90", "setting": "dengue virus type 2 [3]; VeroE6/TMPRSS2, Baseline response 0 %, Hill slope -1.504, Maximum measured 137.122 %, Maximum response 100 %, Minimum measured 76.636 %, R squared 0.034", "result": "> 50", "unit": "µM"}, {"measurement": "EC50", "setting": "Zika virus [4]; VeroE6/TMPRSS2", "result": 6.4, "unit": "µM"}, {"measurement": "EC90", "setting": "Zika virus [4]; VeroE6/TMPRSS2, Baseline response 0 %, Hill slope -0.367, Maximum measured 76.386 %, Maximum response 70 %, Minimum measured 22.981 %, P-gp concentration 2 uM, R squared 0.54, P-gp inhibitor Elacidar", "result": "> 50", "unit": "µM"}]}
{"compound": "Cc1c(C(=O)Nc2cc(-c3cccnc3)ccn2)cc(C2CC2)n1C", "values": [{"measurement": "EC90", "setting": "dengue virus type 2 [1]; Hill slope 0.498, Maximum measured 89.901 %, Minimum measured 65.385 %, R squared 0.493", "result": "> 6.25", "unit": "µM"}, {"measurement": "EC90", "setting": "dengue virus type 2 [1]; Hill slope 0.771, Maximum measured 124.592 %, Minimum measured 47.777 %, R squared 0.6", "result": "< 0.391", "unit": "µM"}, {"measurement": "EC50", "setting": "dengue virus type 2 [1]; vero c1008", "result": "0.83 µM and > 6.25 µM"}, {"measurement": "EC90", "setting": "Zika virus [2]; Baseline response 0 %, Hill slope 10.672, Maximum measured 18.054 %, Maximum response 100 %, Minimum measured -2.868 %, R squared 0.771", "result": "> 50", "unit": "µM"}, {"measurement": "EC50", "setting": "Zika virus [2]; Zika virus, Vero C1008", "result": "> 50", "unit": "µM"}, {"measurement": "EC90", "setting": "Zika virus [2]; Zika virus, Vero C1008, Baseline response 0 %, Hill slope 1.591, Maximum measured 7.654 %, Maximum response 100 %, Minimum measured -2.289 %, R squared 0.158", "result": "> 50", "unit": "µM"}, {"measurement": "EC50", "setting": "dengue virus type 2 [3]; VeroE6/TMPRSS2", "result": 46, "unit": "µM"}, {"measurement": "EC90", "setting": "dengue virus type 2 [3]; VeroE6/TMPRSS2, Baseline response 0 %, Hill slope -10.528, Maximum measured 161.281 %, Maximum response 100 %, Minimum measured 29.52 %, R squared 0.091", "result": "> 50", "unit": "µM"}, {"measurement": "EC50", "setting": "Zika virus [4]; VeroE6/TMPRSS2", "result": 14.5, "unit": "µM"}, {"measurement": "EC90", "setting": "Zika virus [4]; VeroE6/TMPRSS2", "result": 32.7, "unit": "µM"}]}
